In patent US20060246124A1, “Methods of treating cancer with lipid-based platinum compound formulations administered intraperitoneally” (priority 2004, published 2006):

Legend:
[1] = Pharmacokinetics and organ distribution (Part II), platinum by ICP-MS; assay type: in vivo, mice; settings: ip
Description: Sixty ICR mice (female, 7 weeks old) were divided into 4 groups. […] At each designed time point, three to four mice were anaesthetized with 70 mg/kg of Nembutal ip (e.g., 3, 20, and 40 min, and 2, 8, 24, 48, and 72 h). […] Organs including duodenum, kidney, liver, lung, and spleen were resected from the mice. The blood and organ samples were homogenized in distilled water (4-fold of the sample weight) and digested with nitric acid. The platinum concentration in each sample was measured by Inductively Coupled Plasma-Mass Spectrometer (ICP-MS). The pharmacokinetics profiles (FIGS. 3-7, all Y-axes are concentration of μg platinum in one gram of tissue or fluid per mg of injected dose) and parameters (Tables 3 and 4) of each formulation were simulated and calculated.

mice = test: Maximum tolerated dose (MTD), single bolus ip injection; assay type: in vivo
L1210 tumor cells = test: In vivo antitumor activity in Murine L1210 tumor model (ascitic L1210 leukemia), ip administration; settings: L1210, B6D2F1 mice
Description: The test articles and materials are presented below in Table 5.
Day 0, inoculate 6 groups of 5 male mice and 1 group of 9 male control animals with one million viable L1210 cells per mouse by ip injection. • 2. […] Each dose level represents one group of five mice. […] Control group contains 9 untreated mice.
3. Mice were monitored daily for deaths and or signs of clinical illness. The date of euthanasia was recorded for the purpose of experimental end-points. A total of 39 mice divided into 7 groups were studied. At the end point survival was assessed and expressed as % T/C (percent median survival of treated group: median survival of control group.)

L1210 cells = test: Survival of mice with implanted L1210 tumor cells: cyclic temperature vs non cyclic temperature cisplatin liposomes; assay type: in vivo; settings: single bolus ip 6 mg/kg on day 5, L1210, DBA/2 mice
Description: DPPC (3.0 g) and cholesterol (1.2 g) were co-dissolved in 20 mL of ethanol. • 2.
Female DBA/2 mice (Charles Rivers) were used. Thirty (30) mice were injected with 2×10^6 L1210 cells ip on Day 0. On day 1, the mice were weighed and randomized into 3 groups of 10 mice. […] Survival was monitored. Mice were weighed daily after day 10. Mice that lost 20% or greater of their starting weight were euthanized by CO2 inhalation. The date of their death was recorded on data sheets. Median survival was calculated by Prism GraphPad.

stage III ovarian cancer = settings: ip, patients with stage III ovarian cancer and residual tumor masses of 2 cm or less; cited from earlier work
[2] = ip dose 3 mg/kg (1 mg/kg on days 3, 7, 11)
[3] = ip dose 4.5 mg/kg ([…] on days 3, 7, 11)

SMILES: N.N.[Cl][Pt][Cl] [Cisplatin, cis-diamine-dichloroplatinum (II)]
- Circulation AUC ([1]; blood, normalised to injected dose): 7.08 µg·h/g/µg
- Organ AUC, Duodenum ([1]; duodenum): 8.32 µg·h/g/µg
- Organ AUC, Heart ([1]; heart): 2.67 µg·h/g/µg
- Organ AUC, Kidney ([1]; kidney): 8.61 µg·h/g/µg
- Organ Cmax, Kidney ([1]; kidney): 0.46 µg/g/µg
- Organ AUC, Liver ([1]; liver): 28.99 µg·h/g/µg
- Organ Cmax, Liver ([1]; liver): 0.71 µg/g/µg
- Organ AUC, Lung ([1]; lung): 29.00 µg·h/g/µg
- Organ Cmax, Lung ([1]; lung): 1.61 µg/g/µg
- Organ AUC, Spleen ([1]; spleen): 10.45 µg·h/g/µg
- MTD (mice): 9 mg/kg
- % T/C (L1210 tumor cells; [2]): 196%
- Median survival (L1210 tumor cells; [2]): 26.5 days
- % T/C (L1210 tumor cells; [3]): 218%
- Median survival (L1210 tumor cells; [3]): 29.5 days
- Median survival (L1210 cells): 19.5 days
- survival compared with iv cisplatin (stage III ovarian cancer): significantly improves survival
